Columns and labels:
[1] = test system: A2ESO TCR-transduced CD4^+ T cells
Method: It was hypothesized that the improvement killing ability of CD4^+ T cells due to ThPOK knockdown is procedure of T-cell reprogramming via epigenetic regulation. To distinguish how ThPOK reprogrammed CD4^+ T cells to cytolytic CD4^+ T cells, a screening of A2ESO TCR-transduced CD4^+ T cells treated by various epigenetic inhibitors was performed.

A2ESO TCR-T cells = test system: A2ESO TCR-T cells
Method: Activated human T cells were transduced on day 2 and day 3 with A2ESO TCR viruses that were packaged by PG13-A2ESO TCR clone. […] To investigate the functional change of A2ESO TCR-T cells after 2-PCPA treatment, intracellular staining (ICS) was performed to check the expression of effector cytokines, targeting IL-2, IFN-γ and TNF-α. […] Another key feature of less-differentiated T cell is increased oxidative metabolism and mitochondrial respiratory capacity.

[2] = test system: MDA-MB-231 cells expressing HLA-A2 and NY-ESO-1; conditions: mouse
Source text: A breast cancer model was established using MDA-MB-231 cells expressing HLA-A2 and NY-ESO-1 antigen in 8 weeks old NOD-scid IL2Rγnull (NSG) mice.

CAR-T cells = test system: CAR-T cells
Source text: (§1) Both CAR and luciferase were transduced into activated T cells and transfer into NSG mice that have been injected with Raji lymphoma cells.

Raji lymphoma cells = conditions: mouse
Source text: as §1

primary human T cells = conditions: OKT3 activated T cells, day 12, CD45RO^− CCR7^+ CD62L^+
[3] = test system: CD8^+ T cells isolated from 136 TILs; assay: T-cell reactivity assay (ELISA): TMGs in MHC-I expressing Cos7 cells; format: cell-based, human; conditions: Cos7-A1, Cos7-B8, Cos7-C7 cells
Source text: To identify MHC-I neoantigens, MHC-I expressing Cos7 cells were transfected (Cos7-A1, Cos7-B8 and Cos7-C7) cells with 35 TMGs, respectively, followed by adding CD8^+ T cells isolated from 136 TILs. […] To exclude the possibility that other MHC-I and II molecules could also present neoantigens for T cell recognition, fibroblasts were generated from patient #136 tumor samples and used as APCs to express all MHC I and II molecules after IFN-γ pretreatment (FIG. 9C). The IFN-γ—pretreated fibroblasts were electroporated with in IVT mRNA of 136 mel TMGs, and then co-cultured with 136TILs.

136TIL = assay: Intracellular staining of IFN-γ after neoantigen peptide stimulation, 136TIL; format: cell-based, human
Source text: Among them, MAPK9 and ANKIB1 neoantigen-specific CD4^+ T cells accounted for 14.3% and 5.2% in the total T cell population, which accounted for 58% and 21% in the total tumor-reactive CD4^+ T cell population, respectively (FIG. 11B). By contrast, other neoantigen-specific CD4^+ T cells accounted for only a small percentage of T cells in the total T cell population (FIG. 11A). Since HHAT is only one MHC-I neoantigen, it was shown that HHAT neoantigen-specific CD8^+ T cells accounted for 10.6% in the total T cell population when stimulation with HHAT peptide (FIG. 11A), which accounted for 73% in the total tumor-reactive CD8^+ T cell population (FIG. 11B).
T cells were stimulated by various in vitro methods, such as tumor cells, peptides or DNA encoding neoantigens, etc. and induced to release cytokines. Stimulated T cells were resuspended in 100 μl of Cytofix/Cytoperm solution (BD Biosciences) per well for microwell plates (or 250 μl for tubes) and incubated for 20 min at 4° C. for cell fixation. Fixed cells were permeabilized by washing twice in 1× Perm/Wash buffer (BD Biosciences). Then the fixed/permeabilized cells were thoroughly resuspended in 50 μl of 1× Perm/Wash buffer containing 1 μl of phycoerythrin (PE)-conjugated IFN-γ antibody (Thermo Fisher Scientific) and incubate at 4° C. for 30 min in the dark. After that the cells were washed twice with 1× Perm/Wash buffer and ready for flow cytometric analysis.

Molecule: NC1CC1c1ccccc1 (stereo not shown) [2-PCPA]
- cytolytic activity of CD4^+ TCR-T cells [1]: dramatically enhanced the cytolytic activity
- oxidative metabolism and spare respiratory capacity (A2ESO TCR-T cells): increased oxidative metabolism and elevated spare respiratory capacity (SRC)
- Tscm and Tcm percentages in A2ESO TCR-T cells (A2ESO TCR-T cells; 8 uM): increased both Tscm and Tcm percentages
- frequency of A2ESO TCR-T cells with polyfunctional cytokine secretion (A2ESO TCR-T cells; ICS for IL-2, IFN-γ and TNF-α): slightly increased
- in vitro survival effect on A2ESO TCR-T cells (A2ESO TCR-T cells; IL-2 free condition): not seen
- in vitro proliferation (CFSE) (A2ESO TCR-T cells; stimulation with IL-2 or 231-ESO cells): high proliferation potential
- in vivo anti-tumor function of A2ESO TCR-T cells [2]: significantly enhanced
- memory phenotype of T cells after adoptive transfer ([2]; in vivo): maintained higher frequency of both Tscm and Tcm cells
- memory phenotype of CAR-T cells (CAR-T cells): similarly increased the frequencies of less-differentiated memory T cells subsets
- metabolic reprogramming effect on CAR-T cells (CAR-T cells): consistent with its effect on A2ESO TCR-T cells
- in vitro survival of CAR-T cells (CAR-T cells; IL-2 free condition): survived better
- in vivo proliferation of CAR-T cells (in vivo imaging) (Raji lymphoma cells): grew faster than control CAR-T cells
- population of Tscm (primary human T cells): increased the population of Tscm in both CD4^+ and CD8^+ T cells

Molecule: TSMLILSNLVFLEGNEVGKTYWNRI [HHAT]
- activation of CD8^+ T cell response [3]: HLA-A1 restricted neoantigen
- neoantigen-specific CD8^+ T cells in the total T cell population (136TIL): 10.6%
- share in the total tumor-reactive CD8^+ T cell population (136TIL): 73%
